In patent US11045448B2, “Piperidines as covalent menin inhibitors” (THE REGENTS OF THE UNIVERSITY OF MICHIGAN, priority 2017, dated 2021):

How the values were obtained:
MOLM13 = test: 7-day proliferation assay (WST-8), MOLM13; type: cell-based; conditions: Homo sapiens, MOLM-13, 168 h; Table 5; MOLM13; 7 days; read-out: IC50 in cell growth inhibition
Method: (§1) The effect of representative Compounds of the Disclosure on cell viability was determined in a 7-day proliferation assay. Cells were maintained in the appropriate culture medium with 10% FBS at 37° C. and an atmosphere of 5% CO2.
(§2) Cells were seeded in 96-well flat bottom (Corning COSTAR, Corning, N.Y., cat #3595) at a density of 2,000-3,000 cells/well in 100 μl of culture medium. Compounds were serially diluted in the appropriate medium, and 100 μl of the diluted compounds were added to the appropriate wells of the cell plate. After the addition of compounds, the cells were incubated at 37° C. in an atmosphere of 5% CO2 for 7 days. Cell viability was determined using the WST (2-(2-methoxy-4-nitrophenyl)-3-(4-nitrophenyl)-5-(2,4-disulfophenyl)-2H-tetrazolium, monosodium salt) Cell Counting-8 Kit (Dojindo Molecular Technologies, Inc., Rockville, Md.) according to the manufacturers' instructions.
(§3) WST-8 reagent was added to each well at a final concentration of 10% (v/v), and then the plates were incubated at 37° C. for 1-2 hours for color development. The absorbance was measured at 450 nm using a SPECTRAmax PLUS plate reader (Molecular Devices, Sunnyvale, Calif.). The readings were normalized to the DMSO-treated cells and the half maximal inhibitory concentration (IC50) was calculated by nonlinear regression (four parameters sigmoid fitted with variable slope, least squares fit, and no constraint) analysis using the GraphPad Prism 5 software (GraphPad Software, La Jolla, Calif.).

MV4-11 = test: 7-day proliferation assay (WST-8), MV4-11; type: cell-based; conditions: Homo sapiens, 168 h; Table 5; MV4-11; 7 days; read-out: IC50 in cell growth inhibition
Method: as §1, §2, §3

menin protein = menin protein (Homo sapiens (Human), UniProt O00255); test: Fluorescence polarization (FP) competitive binding assay, menin binding affinity; conditions: menin protein 4 nM, probe 2 nM, room temperature 30 minutes
Method: A fluorescence polarization (FP) competitive binding assay was used to determine the binding affinities of representative menin inhibitors. A FAM labeled fluorescent probe was designed and synthesized based on a MLL1 peptide (FAM-MM2). Equilibrium dissociation constant (Kd) value of FAM-MM2 to menin protein was determined from protein saturation experiments by monitoring the total fluorescence polarization of mixtures composed with the fluorescent probe at a fixed concentration and the protein with increasing concentrations up to full saturation. Serial dilutions of the protein were mixed with FAM-MM2 to a final volume of 200 μl in the assay buffer (PBS with 0.02% Bovine γ-Globulin and 4% DMSO. 0.01% Triton X-100 was added right before assays). Final FAM-MM2 concentration was 2 nM. Plates were incubated at room temperature for 30 minutes with gentle shaking to assure equilibrium. FP values in millipolarization units (mP) were measured using the Infinite M-1000 plate reader (Tecan U.S., Research Triangle Park, N.C.) in Microfluor 1 96-well, black, v-bottom plates (Thermo Scientific, Waltham, Mass.) at an excitation wavelength of 485 nm and an emission wavelength of 530 nm.
The IC50, see Table 3, of representative Compounds of the Disclosure were determined in a competitive binding experiment. Mixtures of 5 μl of the tested compounds in DMSO and 195 μl of preincubated protein/probe complex solution in the assay buffer were added into assay plates which were incubated at room temperature for 30 minutes with gentle shaking. Final concentration of the menin protein was 4 nM, and final probe concentration is 2 nM. Negative controls containing protein/probe complex only (equivalent to 0% inhibition), and positive controls containing only free probes (equivalent to 100% inhibition), were included in each assay plate. FP values were measured as described above. IC50 values were determined by nonlinear regression fitting of the competition curves.

menin protein, sequence (O00255 whole entry): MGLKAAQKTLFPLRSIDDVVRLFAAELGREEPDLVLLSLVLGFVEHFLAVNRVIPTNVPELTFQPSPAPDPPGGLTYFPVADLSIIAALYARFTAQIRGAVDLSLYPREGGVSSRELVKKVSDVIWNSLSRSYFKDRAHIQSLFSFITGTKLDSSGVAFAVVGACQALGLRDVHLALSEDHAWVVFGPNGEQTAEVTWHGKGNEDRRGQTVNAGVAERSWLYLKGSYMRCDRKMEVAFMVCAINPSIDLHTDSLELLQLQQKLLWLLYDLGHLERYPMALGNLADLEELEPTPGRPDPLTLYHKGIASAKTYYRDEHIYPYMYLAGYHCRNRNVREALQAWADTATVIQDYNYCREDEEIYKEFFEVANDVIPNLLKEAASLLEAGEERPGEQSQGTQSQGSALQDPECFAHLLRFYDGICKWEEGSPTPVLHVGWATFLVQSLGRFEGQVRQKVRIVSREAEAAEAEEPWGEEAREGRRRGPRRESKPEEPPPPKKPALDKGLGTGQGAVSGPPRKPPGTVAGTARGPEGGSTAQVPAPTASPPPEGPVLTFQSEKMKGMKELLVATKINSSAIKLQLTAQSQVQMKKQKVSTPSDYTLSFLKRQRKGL

Compound	IC50 (MOLM13) [nM]	IC50 (MV4-11) [nM]	IC50 (menin protein) [nM]
N#C[C@@](c1cccc(F)c1)(C1CCN(CC2CN(c3ccc(S(=O)(=O)C4CC4)cc3)C2)CC1)[C@H]1CCC[C@@H]1NC(=O)CCl [Cpd. No. 76, 2-chloro-N-((1S,2R)-2-((S)-cyano(1-((1-(4-(cyclopropylsulfonyl)phenyl)azetidin-3-yl)methyl)piperidin-4-yl)(3-fluorophenyl)methyl)cyclopentyl)acetamide]	313	117	5
C=CC(=O)N1CCC(S(=O)(=O)c2ccc(N3CC(CN4CCC([C@@](C#N)(c5cccc(F)c5)[C@H]5CCC[C@@H]5NC(=O)OC)CC4)C3)cc2)C1 (stereo partly drawn) [Cpd. No. 77, methyl ((1S,2R)-2-((1S)-(1-((1-(4-((1-acryloylpyrrolidin-3-yl)sulfonyl)phenyl)azetidin-3-yl)methyl)piperidin-4-yl)(cyano)(3-fluorophenyl)methyl)cyclopentyl)carbamate]	1220	91	11
C=CC(=O)N1CCCC(S(=O)(=O)c2ccc(N3CC(CN4CCC([C@@](C#N)(c5cccc(F)c5)[C@H]5CCC[C@@H]5NC(=O)OC)CC4)C3)cc2)C1 (stereo partly drawn) [Cpd. No. 78, methyl ((1S,2R)-2-((1S)-(1-((1-(4-((1-acryloylpiperidin-3-yl)sulfonyl)phenyl)azetidin-3-yl)methyl)piperidin-4-yl)(cyano)(3-fluorophenyl)methyl)cyclopentyl)carbamate]	291	65	10
C=CC(=O)Nc1ccc(S(=O)(=O)c2ccc(N3CC(CN4CCC([C@](C#N)(c5cccc(F)c5)[C@H]5CCC[C@@H]5OC(=O)NC)CC4)C3)cc2)cc1 [Cpd. No. 11, (1S,2R)-2-((R)-(1-((1-(4-((4-acrylamidophenyl)sulfonyl)phenyl)azetidin-3-yl)methyl)piperidin-4-yl)(cyano)(3-fluorophenyl)methyl)cyclopentyl methylcarbamate]			2200
C=CC(=O)Nc1cccc(S(=O)(=O)c2ccc(N3CC(CN4CCC([C@](C#N)(c5cccc(F)c5)[C@H]5CCC[C@@H]5OC(=O)NC)CC4)C3)cc2)c1 [Cpd. No. 4, (1S,2R)-2-((R)-(1-((1-(4-((3-acrylamidophenyl)sulfonyl)phenyl)azetidin-3-yl)methyl)piperidin-4-yl)(cyano)(3-fluorophenyl)methyl)cyclopentyl methylcarbamate]			300
COC(=O)N[C@H]1CCC[C@@H]1[C@](C#N)(c1cccc(F)c1)C1CCN(CCCOc2ccc(S(=O)(=O)C3CN(C(=O)/C=C/CN(C)C)C3)cc2)CC1 [Cpd. No. 68, methyl ((1S,2R)-2-((S)-cyano(1-(3-(4-((1-((E)-4-(dimethylamino)but-2-enoyl)azetidin-3-yl)sulfonyl)phenoxy)propyl)piperidin-4-yl)(3-fluorophenyl)methyl)cyclopentyl)carbamate]			7
C=CC(=O)N[C@H]1CCC[C@@H]1[C@](C#N)(c1cccc(F)c1)C1CCN(CC2CN(c3ccc(C#N)cc3)C2)CC1 [Cpd. No. 80, N-((1S,2R)-2-((S)-cyano(1-((1-(4-cyanophenyl)azetidin-3-yl)methyl)piperidin-4-yl)(3-fluorophenyl)methyl)cyclopentyl)acrylamide]			7
C/C=C/C(=O)N1CC(S(=O)(=O)c2ccc(N3CC(CN4CCC([C@@](C#N)(c5cccc(F)c5)[C@H]5CCC[C@@H]5NC(=O)OC)CC4)C3)cc2)C1 [Cpd. No. 56, methyl ((1S,2R)-2-((S)-(1-((1-(4-((1-((E)-but-2-enoyl)azetidin-3-yl)sulfonyl)phenyl)azetidin-3-yl)methyl)piperidin-4-yl)(cyano)(3-fluorophenyl)methyl)cyclopentyl)carbamate]			5
COC(=O)N[C@H]1CCC[C@@H]1[C@](C#N)(c1cccc(F)c1)C1CCN(CC2(F)CN(c3ccc(S(=O)(=O)C4CN(C(=O)/C=C/CN(C)C)C4)cc3)C2)CC1 [Cpd. No. 69, methyl ((1S,2R)-2-((S)-cyano(1-((1-(4-((1-((E)-4-(dimethylamino)but-2-enoyl)azetidin-3-yl)sulfonyl)phenyl)-3-fluoroazetidin-3-yl)methyl)piperidin-4-yl)(3-fluorophenyl)methyl)cyclopentyl)carbamate]			9

Stronger by IC50 (menin protein), values ahead:

IC50 (MOLM13) [nM]	IC50 (MV4-11) [nM]	IC50 (menin protein) [nM]	Compound
		4	C/C=C/C(=O)Nc1cccc(S(=O)(=O)c2ccc(N3CC(CN4CCC([C@@](C#N)(c5cccc(F)c5)[C@H]5CCC[C@@H]5NC(=O)OC)CC4)C3)cc2)c1 [Cpd. No. 62, methyl ((1S,2R)-2-((S)-(1-((1-(4-((3-((E)-but-2-enamido)phenyl)sulfonyl)phenyl)azetidin-3-yl)methyl)piperidin-4-yl)(cyano)(3-fluorophenyl)methyl)cyclopentyl)carbamate]
14	2	3	COC(=O)N[C@H]1CCC[C@@H]1[C@](C#N)(c1cccc(F)c1)C1CCN(CC2CN(c3ccc(S(=O)(=O)C4CN(C(=O)/C=C/CN5CCCC5)C4)cc3)C2)CC1 [Cpd. No. 74, methyl ((1S,2R)-2-((S)-cyano(3-fluorophenyl)(1-((1-(4-((1-((E)-4-(pyrrolidin-1-yl)but-2-enoyl)azetidin-3-yl)sulfonyl)phenyl)azetidin-3-yl)methyl)piperidin-4-yl)methyl)cyclopentyl)carbamate]
22	1	2	COC(=O)N[C@H]1CCC[C@@H]1[C@](Cn1ccnn1)(c1cccc(F)c1)C1CCN(CC2CN(c3ccc(S(=O)(=O)C4CN(C(=O)/C=C/CN(C)C)C4)cc3)C2)CC1 [Cpd. No. 72, methyl ((1S,2R)-2-((S)-1-(1-((1-(4-((1-((E)-4-(dimethylamino)but-2-enoyl)azetidin-3-yl)sulfonyl)phenyl)azetidin-3-yl)methyl)piperidin-4-yl)-1-(3-fluorophenyl)-2-(1H-1,2,3-triazol-1-yl)ethyl)cyclopentyl)carbamate]
31	6	2	CCc1nccn1C[C@@](c1cccc(F)c1)(C1CCN(CC2CN(c3ccc(S(=O)(=O)C4CN(C(=O)/C=C/CN(C)C)C4)cc3)C2)CC1)[C@H]1CCC[C@@H]1NC(=O)OC [Cpd. No. 67, methyl ((1S,2R)-2-((S)-1-(1-((1-(4-((1-((E)-4-(dimethylamino)but-2-enoyl)azetidin-3-yl)sulfonyl)phenyl)azetidin-3-yl)methyl)piperidin-4-yl)-2-(2-ethyl-1H-imidazol-1-yl)-1-(3-fluorophenyl)ethyl)cyclopentyl)carbamate]
		2	C=CC(=O)N1CC(S(=O)(=O)c2ccc(N3CC(F)(CN4CCC([C@@](Cn5ccnc5CC)(c5cccc(F)c5)[C@H]5CCC[C@@H]5NC(=O)OC)CC4)C3)cc2)C1 [Cpd. No. 16, methyl ((1S,2R)-2-((S)-1-(1-((1-(4-((1-acryloylazetidin-3-yl)sulfonyl)phenyl)-3-fluoroazetidin-3-yl)methyl)piperidin-4-yl)-2-(2-ethyl-1H-imidazol-1-yl)-1-(3-fluorophenyl)ethyl)cyclopentyl)carbamate]
